# Literature values, collected in patent US8911424B2, “Methods and devices for preventing catheter related urinary tract infections” (Ethicon, Inc., priority 2011, dated 2014).
# Details: aqueous solubility
compound,measurement,value
[Br][Ag] [Silver Bromide],Solubility (g/100 g H2O),0.000014 g/100 g H2O
